Test results: PubChem BioAssay AID248 (DTP/NCI, 2004)
Toxic doses and inconclusive results are not listed. Rule as the data show it: active = T/C of 150% or more; inactive = T/C below 125%.

System: L1210 leukemia ip in BDF1 mice, survival T/C
Assay: NCI In Vivo Anticancer Drug Screen. Data for tumor model L1210 Leukemia (intraperitoneal) in B6D2F1 (BDF1) mice
Settings: endpoint: mean survival time, higher = longer survival
Method in brief: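 Each compound was tested against a transplantable tumor grown in mice. The endpoint was survival, with treated animals benchmarked against vehicle controls as a simple ratio.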

[1] = dose: 100.0 mg/kg/injection, schedule: Q01DX001 (ip), vehicle: saline
[2] = dose: 200.0 mg/kg/injection, schedule: Q01DX001 (ip), vehicle: saline
[3] = dose: 400.0 mg/kg/injection, schedule: Q01DX001 (ip), vehicle: saline
[4] = dose: 100.0 mg/kg/injection, schedule: Q04DX003 (ip), vehicle: Klucel (hydroxypropylcellulose) (HPC)
[5] = dose: 200.0 mg/kg/injection, schedule: Q04DX003 (ip), vehicle: Klucel (hydroxypropylcellulose) (HPC)
[6] = dose: 100.0 mg/kg/injection, schedule: Q04DX003 (ip), vehicle: saline
[7] = dose: 200.0 mg/kg/injection, schedule: Q04DX003 (ip), vehicle: saline
[8] = dose: 400.0 mg/kg/injection, schedule: Q04DX003 (ip), vehicle: saline
[9] = dose: 100.0 mg/kg/injection, schedule: Q01DX009 (ip), vehicle: saline with Tween-80
[10] = dose: 200.0 mg/kg/injection, schedule: Q01DX009 (ip), vehicle: saline with Tween-80
[11] = dose: 100.0 mg/kg/injection, schedule: Q01DX001 (ip), vehicle: carboxymethylcellulose (CMC)
[12] = dose: 200.0 mg/kg/injection, schedule: Q01DX001 (ip), vehicle: carboxymethylcellulose (CMC)
[13] = dose: 400.0 mg/kg/injection, schedule: Q01DX001 (ip), vehicle: carboxymethylcellulose (CMC)

Measured: T/C

CCCCCCCc1nc2c([nH]1)c(=O)n(C)c(=O)n2C
inactive: dose: 50.0 mg/kg/injection, schedule: Q01DX001 (ip), vehicle: saline 98 % of control | [1] 101 % of control | [2] 95 % of control | [3] 116 % of control

COC(=O)C1CC(=O)c2ccc(OC)cc21 (stereo unspecified)
inactive: dose: 100.0 mg/kg/injection, schedule: Q01DX001 (ip), vehicle: Klucel (hydroxypropylcellulose) (HPC) 102 % of control | dose: 200.0 mg/kg/injection, schedule: Q01DX001 (ip), vehicle: Klucel (hydroxypropylcellulose) (HPC) 92 % of control | dose: 400.0 mg/kg/injection, schedule: Q01DX001 (ip), vehicle: Klucel (hydroxypropylcellulose) (HPC) 100 % of control

O=C(COc1cccc(Cl)c1Cl)Nc1cccnc1
inactive: dose: 100.0 mg/kg/injection, schedule: Q04DX003 (ip), vehicle: saline with Tween-80 102 % of control | dose: 200.0 mg/kg/injection, schedule: Q04DX003 (ip), vehicle: saline with Tween-80 96 % of control | dose: 400.0 mg/kg/injection, schedule: Q04DX003 (ip), vehicle: saline with Tween-80 98 % of control

CCOC(=O)NCC(CCN1CCCCC1)(c1cccc2ccccc12)C(C)C (stereo unspecified)
inactive: [4] 100 % of control | [5] 88 % of control

NC(=O)C1(NC2CCCCC2)CCN(Cc2ccccc2)CC1
inactive: dose: 50.0 mg/kg/injection, schedule: Q01DX009 (ip), vehicle: gum acacia 100 % of control | dose: 100.0 mg/kg/injection, schedule: Q01DX009 (ip), vehicle: gum acacia 100 % of control | dose: 100.0 mg/kg/injection, schedule: Q04DX003 (ip), vehicle: gum acacia 96 % of control | dose: 200.0 mg/kg/injection, schedule: Q01DX009 (ip), vehicle: gum acacia 93 % of control | dose: 200.0 mg/kg/injection, schedule: Q04DX003 (ip), vehicle: gum acacia 96 % of control

COc1cc(C=C2c3ccccc3-c3ccccc32)ccc1O
inactive: [1] 91 % of control | [6] 99 % of control | [2] 91 % of control | [7] 91 % of control | [3] 91 % of control | [8] 91 % of control

ClCC1(CCl)OCCO1
inactive: dose: 75.0 mg/kg/injection, schedule: Q01DX001 (ip), vehicle: carboxymethylcellulose (CMC) 95 % of control | dose: 150.0 mg/kg/injection, schedule: Q01DX001 (ip), vehicle: carboxymethylcellulose (CMC) 104 % of control

CSc1ccc(OC(=O)Nc2ccc(C)c([N+](=O)[O-])c2)cc1C
inactive: [9] 89 % of control | [10] 89 % of control

CC(CNC1CCCCC1)OC(=O)c1ccc([N+](=O)[O-])cc1 (stereo unspecified)
inactive: dose: 75.0 mg/kg/injection, schedule: Q01DX001 (ip), vehicle: acetone 103 % of control | dose: 150.0 mg/kg/injection, schedule: Q01DX001 (ip), vehicle: acetone 93 % of control | dose: 300.0 mg/kg/injection, schedule: Q01DX001 (ip), vehicle: acetone 97 % of control

COc1ccccc1CN1CCCOP1(=O)Nc1ccccc1C (stereo unspecified)
inactive: dose: 50.0 mg/kg/injection, schedule: Q01DX001 (ip), vehicle: carboxymethylcellulose (CMC) 109 % of control | [11] 93 % of control | [12] 96 % of control | [13] 91 % of control

O=[N+]([O-])c1ccc(C2OCCO2)cc1
inactive: [11] 94 % of control | [12] 91 % of control | [13] 96 % of control

Cc1cccc2c1NC(C)C2C (stereo unspecified)
inactive: dose: 100.0 mg/kg/injection, schedule: Q01DX009 (ip), vehicle: saline 102 % of control | [6] 96 % of control | dose: 200.0 mg/kg/injection, schedule: Q01DX009 (ip), vehicle: saline 98 % of control | [7] 93 % of control | dose: 400.0 mg/kg/injection, schedule: Q01DX009 (ip), vehicle: saline 98 % of control | [8] 93 % of control

CSC(=O)SC
inactive: [9] 101 % of control

O=C(O)CS(=O)(=O)C(c1ccccc1)c1ccccc1
inactive: [1] 94 % of control | [2] 97 % of control | [3] 96 % of control

CC(C)(C)c1ccc(S(=O)(=O)c2ccc(C(C)(C)C)cc2)cc1
inactive: [4] 94 % of control | [5] 105 % of control | dose: 400.0 mg/kg/injection, schedule: Q04DX003 (ip), vehicle: Klucel (hydroxypropylcellulose) (HPC) 91 % of control

CC(C)(O)C(O)(c1ccccc1)c1ccccc1
inactive: [1] 103 % of control | [2] 97 % of control | [3] 95 % of control

CCOCCOC(=O)CSCC(=O)OCCOCC
inactive: [1] 93 % of control | [2] 104 % of control | [3] 109 % of control

Clc1nc2ccccc2s1
inactive: dose: 100.0 mg/kg/injection, schedule: Q01DX009 (ip), vehicle: alcohol 88 % of control | dose: 200.0 mg/kg/injection, schedule: Q01DX009 (ip), vehicle: alcohol 89 % of control

CSc1ncc(Br)c(C(=O)O)n1
inactive: [9] 93 % of control | [10] 93 % of control | dose: 400.0 mg/kg/injection, schedule: Q01DX009 (ip), vehicle: saline with Tween-80 94 % of control

OC1CCCN(Cc2ccccc2)C1 (stereo unspecified)
inactive: [1] 107 % of control | [2] 96 % of control

CC(=O)CCP(C)(=O)O
inactive: dose: 100.0 mg/kg/injection, schedule: Q04DX002 (ip), vehicle: saline with Tween-80 95 % of control | dose: 200.0 mg/kg/injection, schedule: Q04DX002 (ip), vehicle: saline with Tween-80 92 % of control | dose: 400.0 mg/kg/injection, schedule: Q04DX002 (ip), vehicle: saline with Tween-80 104 % of control
